US8242058B2, “Reagents and methods for appending functional groups to proteins” (Wisconsin Alumni Research Foundation, priority 2006, dated 2012)

Key:
[1] = Immobilization on phosphinothioester-displaying chips by Staudinger ligation, immunofluorescence detection; settings: 10 μM in 5% DMF/water, r.t.
Method: Preparation of Gold Chips (Chang). Preparation of Phosphinothioester-displaying SAMs of Alkane Thiols on Gold Chips. Alkane thiol solutions were prepared by dissolving HS—(CH2)11—(O—CH2—CH2)6—O—CH2—COOH and HS—(CH2)11—(O—CH2—CH2)3—OH in ethanol to a final concentration of 0.25 mM each. Gold chips were cleaned under a stream of Ar(g) and immersed in the alkane thiol solution for at least 18 h at r.t. After rinsing thoroughly with ethanol and drying under a stream of Ar(g), the chips were overlaid with an aqueous solution containing N-hydroxysuccinimide (50 mM) and 1-ethyl-3-(3-dimethylaminopropyl)-carbodiimide (200 mM) for 7 min to generate succinimidyl ester-displaying chips. Phosphinomethanethiol (PPh2CH2SH) was synthesized as described earlier and was dissolved in anhydrous DMF to a concentration of 100 mM. N,N-diisopropylethylamine (DIPEA) was added to a concentration of 120 mM. […]
Detection of Immobilized RNase A. A chip displaying immobilized RNase A was overlaid with anti-RNase A rabbit primary antibody (100 μg/mL in sodium phosphate buffer (25 mM) at pH 7.5) for 30 min at r.t. […] Finally, the chip was rinsed with sodium phosphate buffer (25 mM) at pH 7.5 (2×20 mL) and incubated in the same buffer for 15 min and scanned with a Genomic Solutions® GeneTac UC4×4 Fluorescence Scanner using a gain of 50.

[2] = system: 6-carboxyfluorescein-dArU(dA)2-6-carboxytetramethylrhodamine; assay: RNase A activity assay on immobilized RNase A; assay type: biochemical; settings: chip overlaid with 10 μM protein, pH 6.0
Method: RNase A activity assay on immobilized RNase A. A phosphinothioester chip was overlaid with azido-RNase A (10 μM in 5% DMF/H2O) for 15 min in Ar(g) atmosphere in an AtmosBag™ to immobilize RNase A via Staudinger ligation. The chip was rinsed with sodium phosphate buffer (25 mM) at pH 7.5 (2×20 mL) and then introduced into a vial containing 2-(N-Morpholino)ethanesulfonic acid buffer (0.1 M) at pH 6.0 (22 mL, containing 0.1 M NaCl). A fluorogenic substrate of RNase A, 6-carboxyfluorescein-dArU(dA)2-6-carboxytetramethylrhodamine (10 μl of a 40 μM solution), was introduced into the vial. The vial was placed on a shaker and 2 mL aliquots were withdrawn at various time intervals and the fluorescence measured (λex=493 nm, λem=515 nm). The fluorescence intensity was plotted against time. A phosphinothioester chip was overlaid with wt-RNase A (10 μM in 5% DMF/H2O) and rinsed with sodium phosphate buffer (25 mM) at pH 7.5 (2×20 mL) and a similar assay was performed. As a negative control, a similar assay was performed on a phosphinothioester chip which was not overlaid with RNase A. The percentage of the fluorescent substrate cleaved at various time intervals were subtracted from the corresponding values for the negative control to generate the graph in FIG. 8.

[3] = target: T1, ribonuclease inhibitor protein (RI) (Homo sapiens, UniProt P13489); assay: RI binding to immobilized RNase A (immunoassay, ellipsometry); settings: RI 10 μM, 10 min at 4° C.
T1 sequence (P13489 2-461 limits assumed): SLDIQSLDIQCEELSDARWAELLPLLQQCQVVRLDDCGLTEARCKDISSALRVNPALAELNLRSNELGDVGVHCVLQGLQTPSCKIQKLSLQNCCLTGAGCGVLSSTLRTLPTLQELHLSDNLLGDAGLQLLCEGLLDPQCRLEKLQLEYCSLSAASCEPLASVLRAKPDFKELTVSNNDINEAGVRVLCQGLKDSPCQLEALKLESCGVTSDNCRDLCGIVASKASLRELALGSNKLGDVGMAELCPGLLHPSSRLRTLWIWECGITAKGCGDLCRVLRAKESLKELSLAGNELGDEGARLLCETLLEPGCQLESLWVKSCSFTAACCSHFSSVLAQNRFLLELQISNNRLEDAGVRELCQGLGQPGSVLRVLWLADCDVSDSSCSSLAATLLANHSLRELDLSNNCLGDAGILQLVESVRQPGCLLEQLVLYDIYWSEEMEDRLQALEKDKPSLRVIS
Method: RI binding to immobilized RNase A. Azido-RNase A (1 μL, 10 μM in 5% DMF/water) was spotted on phosphinothioester-displaying SAMs on a gold chip for 15 minutes at r.t. in an AtmosBag™ filled with Ar(g). The chip was taken out of the bag and rinsed with sodium phosphate buffer (25 mM) at pH 7.5 (2×20 mL) and incubated in the same buffer for 30 min to remove non-specifically bound RNase A. RI (10 μM in sodium phosphate buffer (25 mM) at pH 7.5 containing 10 mM DTT) was overlaid on the chip for 10 min at 4° C. The chip was then rinsed with sodium phosphate buffer (25 mM) at pH 7.5 containing 10 mM DTT (2×20 mL) and incubated in the same buffer for 15 min.
Detection of RI bound to immobilized RNase A. (i) Immunoassay: After RI binding, the chip was overlaid with bovine serum albumin (2.0 mg/mL in sodium phosphate buffer (25 mM) at pH 7.5) for 15 min. The chip was rinsed with sodium phosphate buffer (25 mM) at pH 7.5 (2×20 mL) and subsequently incubated with chicken primary antibody to RI (12.5 μg/mL in sodium phosphate buffer (25 mM) at pH 7.5) for 15 min. […] The chip was scanned with a Genomic Solutions® GeneTac UC4×4 Fluorescence Scanner using a gain of 50. […]

- RI binding to chip incubated with the protein [3]: bound RI
Substance: Met(−1)RNase A-Gly-NHNHCH2C(O)NHCH2CH2N3 [azido-RNase A]
- time at which fluorescence signal of immobilized protein was detected [1]: ≤ 1 min
- enzymatic activity of chip incubated with the protein (increase of fluorescence intensity) [2]: much faster rate
